Results reported in patent US20250289829A1, “DEUBIQUITINASE INHIBITOR AND USE THEREOF” (CHASER THERAPEUTICS, INC., priority 2022, published 2025).

Experiments:
USP25 = biological target: T1, USP25 (Homo sapiens, UniProt Q9UHP3); test: USP25 activity by the Ub-Rh110 method; type: biochemical; settings: purified USP25 15 nM, Ub-Rh110 125 nM; read-out: Inhibitory activity (IC50) USP25
T1 construct: purchased R&D Systems
T1 sequence (Q9UHP3 1-1055): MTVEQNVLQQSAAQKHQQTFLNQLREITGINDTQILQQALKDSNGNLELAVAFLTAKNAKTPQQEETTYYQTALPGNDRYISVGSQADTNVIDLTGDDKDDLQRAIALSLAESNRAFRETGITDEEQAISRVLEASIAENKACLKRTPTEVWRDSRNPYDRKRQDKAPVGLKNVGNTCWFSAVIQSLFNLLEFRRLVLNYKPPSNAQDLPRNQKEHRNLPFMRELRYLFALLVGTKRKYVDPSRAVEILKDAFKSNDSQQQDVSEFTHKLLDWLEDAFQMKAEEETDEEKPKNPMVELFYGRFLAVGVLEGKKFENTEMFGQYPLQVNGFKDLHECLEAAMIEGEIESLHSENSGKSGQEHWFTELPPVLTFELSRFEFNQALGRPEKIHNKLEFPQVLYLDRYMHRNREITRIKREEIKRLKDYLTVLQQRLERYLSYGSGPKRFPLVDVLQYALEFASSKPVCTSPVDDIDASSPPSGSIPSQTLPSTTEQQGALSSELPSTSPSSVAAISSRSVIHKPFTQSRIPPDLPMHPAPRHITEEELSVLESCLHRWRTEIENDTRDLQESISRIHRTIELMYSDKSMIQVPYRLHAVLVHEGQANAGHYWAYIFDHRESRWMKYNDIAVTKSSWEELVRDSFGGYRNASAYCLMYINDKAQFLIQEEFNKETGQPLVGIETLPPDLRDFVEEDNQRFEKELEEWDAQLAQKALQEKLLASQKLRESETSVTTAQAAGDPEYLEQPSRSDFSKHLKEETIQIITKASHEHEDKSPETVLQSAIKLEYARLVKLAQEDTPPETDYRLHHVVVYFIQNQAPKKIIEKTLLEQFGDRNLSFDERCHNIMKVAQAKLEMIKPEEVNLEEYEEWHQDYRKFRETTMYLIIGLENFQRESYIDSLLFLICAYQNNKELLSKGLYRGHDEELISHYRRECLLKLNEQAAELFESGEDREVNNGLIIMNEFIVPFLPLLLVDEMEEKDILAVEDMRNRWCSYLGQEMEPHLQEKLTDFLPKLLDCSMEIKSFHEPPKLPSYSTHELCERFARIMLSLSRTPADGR
Protocol: USP25 activity was determined by the Ub-Rh110 method.
Purified USP25 was purchased from R&D Systems. The experimental procedures were the same as those in Example 2. The final concentration of USP25 was 15 nM, the final concentration of the substrate Ub-Rh110 was 125 nM, and the final volume of the whole reaction system was 20 μL.
(§1) With reference to Example 2 and Example 3, USP28 and USP25 inhibitor activity tests were performed on representative example compounds of the present disclosure and the following comparative compound structures.

USP28 = biological target: T2, USP28 (Homo sapiens, UniProt Q96RU2); test: USP28 activity by the ubiquitin-rhodamine 110 (Ub-Rh110) method; type: biochemical; settings: purified USP28 4 nM, Ub-Rh110 125 nM, 30 min preincubation; read-out: Inhibitory activity (IC50) USP28
T2 construct: purchased R&D Systems China Co., Ltd. (R&D Systems)
T2 sequence (Q96RU2 1-1077): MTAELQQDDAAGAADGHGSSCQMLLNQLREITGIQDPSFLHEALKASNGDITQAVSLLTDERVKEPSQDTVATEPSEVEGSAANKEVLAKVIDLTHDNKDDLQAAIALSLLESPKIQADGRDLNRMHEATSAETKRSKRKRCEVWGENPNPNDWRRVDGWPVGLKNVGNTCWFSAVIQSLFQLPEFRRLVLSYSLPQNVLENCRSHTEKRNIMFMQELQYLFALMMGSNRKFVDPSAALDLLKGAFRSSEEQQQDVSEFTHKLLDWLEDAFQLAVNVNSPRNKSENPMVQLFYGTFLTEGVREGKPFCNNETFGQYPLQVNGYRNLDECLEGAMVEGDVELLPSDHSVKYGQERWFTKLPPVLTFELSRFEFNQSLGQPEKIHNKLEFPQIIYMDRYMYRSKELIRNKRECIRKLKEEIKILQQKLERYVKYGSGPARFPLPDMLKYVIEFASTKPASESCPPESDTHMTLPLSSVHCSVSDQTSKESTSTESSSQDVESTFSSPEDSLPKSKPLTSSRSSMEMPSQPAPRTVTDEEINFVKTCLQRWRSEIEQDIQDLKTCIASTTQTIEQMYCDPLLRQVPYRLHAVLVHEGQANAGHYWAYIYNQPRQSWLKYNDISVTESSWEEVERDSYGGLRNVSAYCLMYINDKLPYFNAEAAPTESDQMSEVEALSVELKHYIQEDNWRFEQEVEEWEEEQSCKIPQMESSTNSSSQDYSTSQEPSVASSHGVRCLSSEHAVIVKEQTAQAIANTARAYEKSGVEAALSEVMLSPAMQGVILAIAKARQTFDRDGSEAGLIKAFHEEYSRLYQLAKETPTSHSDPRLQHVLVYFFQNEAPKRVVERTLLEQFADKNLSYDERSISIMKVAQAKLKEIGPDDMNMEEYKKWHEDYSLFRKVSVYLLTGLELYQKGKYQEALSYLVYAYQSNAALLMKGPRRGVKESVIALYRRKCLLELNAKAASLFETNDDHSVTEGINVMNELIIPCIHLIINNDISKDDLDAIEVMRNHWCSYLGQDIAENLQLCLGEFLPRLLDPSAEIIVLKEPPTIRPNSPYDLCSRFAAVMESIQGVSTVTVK
Protocol: USP28 activity was determined by the ubiquitin-rhodamine 110 (Ub-Rh110) method.
Purified USP28 and a substrate Ub-Rh110 used for determining deubiquitinase activity were purchased from R&D Systems China Co., Ltd. (R&D Systems). First, test compounds were each dissolved in DMSO to prepare a 10 mM stock solution, and then the stock solution was diluted to the desired concentration (with a DMSO content of 0.5%) with a buffer solution [containing 20 mM Tris-HCl (pH 8.0), 2 mM CaCl2), 3 mM BME, 0.01% Prionex, and 0.01% Triton X-100]. The prepared test compound solutions at different concentrations were mixed uniformly with USP28 (final concentration: 4 nM) in a 96-well plate, and the mixture was incubated at r. t. for 30 min before the addition of Ub-Rh110 to 125 nM. The final volume of the whole reaction system was 20 μL. The released fluorescence (excitation wavelength: 485 nm, emission wavelength: 535 nm) was detected immediately on a microplate reader after the addition of the substrate. A blank control group (DMSO instead of test compound) and a substrate group (no USP28 added) were set simultaneously. The inhibitory rates of the test compounds for USP28 were calculated according to the following formula:
Inhibition %=(1−[(fluorescence valuetest compound−fluorescence valuesubstrate)/(fluorescence valuecontrol−fluorescence valuesubstrate])×100%
According to the inhibitory rates of the test compounds for USP28 under different concentrations, IC50 values were calculated.
as §1

Structure (SMILES)	IC50 (USP25)	IC50 (USP28)
CCn1ccc2c(Cl)c(C(=O)NCCc3ccc(N4CC5CCC(C4)N5)cc3)cnc21 [Compound I-01, N-4-(3,8-diazabicyclo[3.2.1]octan-3-yl)phenethyl-4-chloro-1-ethyl-1H-pyrrolo[2,3-b]pyridine-5-carboxamide]	1000 to 10000 nM	1000 to 10000 nM
CCn1ccc2c(NC)c(C(=O)NCCc3ccc(N4CC5CCC(C4)N5)cc3)cnc21 [Compound I-02, N-4-(3,8-diazabicyclo[3.2.1]octan-3-yl)phenethyl-1-ethyl-4-methylamino-1H-pyrrolo[2,3-b]pyridine-5-carboxamide]	< 50 nM	< 50 nM
CCNc1c(C(=O)NCCc2ccc(N3CC4CCC(C3)N4)cc2)cnc2c1ccn2CC [Compound I-03]	500 to 1000 nM	500 to 1000 nM
CCCNc1c(C(=O)NCCc2ccc(N3CC4CCC(C3)N4)cc2)cnc2c1ccn2CC [Compound I-04]	> 10000 nM	1000 to 10000 nM
CCn1ccc2c(NC)c(C(=O)NCCc3ccc(N4CC5CCC(C4)N5)cc3F)cnc21 [Compound I-05]	50 to 500 nM	< 50 nM
CCn1ccc2c(NC)c(C(=O)NCC(C)(C)c3ccc(N4CC5CCC(C4)N5)cc3F)cnc21 [Compound I-06]	500 to 1000 nM	50 to 500 nM
CCn1ccc2c(NC)c(C(=O)NCCc3ccc(N4CCNCC4)cc3)cnc21 [Compound I-07]	< 50 nM	< 50 nM
CCn1ccc2c(NC)c(C(=O)NCCc3c[nH]c4ccccc34)cnc21 [Compound I-08]	50 to 500 nM	< 50 nM
CCn1ccc2c(NC)c(C(=O)NCCc3ccc(OC)c(OC)c3)cnc21 [Compound I-09]	50 to 500 nM	50 to 500 nM
CCn1ccc2c(NC)c(C(=O)NCCc3ccc(Br)cc3)cnc21 [Compound I-10]	> 10000 nM	–
CNc1c(C(=O)NCCc2ccc(N3CC4CCC(C3)N4)cc2)cnc2[nH]ccc12 [Compound I-11]	500 to 1000 nM	50 to 500 nM
CNc1c(C(=O)NCCc2ccc(N3CC4CCC(C3)N4)cc2)cnc2c1ccn2C [Compound I-12]	50 to 500 nM	< 50 nM
CCCn1ccc2c(NC)c(C(=O)NCCc3ccc(N4CC5CCC(C4)N5)cc3)cnc21 [Compound I-13]	< 50 nM	< 50 nM
CCCCn1ccc2c(NC)c(C(=O)NCCc3ccc(N4CC5CCC(C4)N5)cc3)cnc21 [Compound I-14]	< 50 nM	< 50 nM
CNc1c(C(=O)NCCc2ccc(N3CC4CCC(C3)N4)cc2)cnc2c1ccn2CC(F)(F)F [Compound I-15]	< 50 nM	< 50 nM
CNc1c(C(=O)NCCc2ccc(N3CCNCC3)cc2)cnc2c1ccn2CC(F)(F)F [Compound I-16]	< 50 nM	< 50 nM
CCn1ccc2c(NC)c(C(=O)NCCc3ccc(C4CC5CCC(C4)N5)cc3)cnc21 (stereo not shown) [Compound I-17]	50 to 500 nM	< 50 nM

Structure (SMILES)	IC50 (USP25)	IC50 (USP28)
CCn1ccc2c(NC)c(C(=O)NCCc3ccc(C4C5CCC4CNC5)cc3)cnc21 (stereo not shown) [Compound I-18]	50 to 500 nM	–
CCn1ccc2c(NC)c(C(=O)NCCc3ccc(N4C5CCC4CNC5)cc3)cnc21 [Compound I-19]	50 to 500 nM	< 50 nM
CCn1ccc2c(NC)c(C(=O)NCCc3ccc(C4CCNCC4)cc3)cnc21 [Compound I-20]	50 to 500 nM	< 50 nM
CCn1ccc2c(NC)c(C(=O)NC[C@H](C)c3ccc(N4CC5CCC(C4)N5)cc3)cnc21 [Compound I-21]	500 to 1000 nM	50 to 500 nM
CCn1ccc2c(NC)c(C(=O)NC[C@@H](C)c3ccc(N4CC5CCC(C4)N5)cc3)cnc21 [Compound I-22]	500 to 1000 nM	50 to 500 nM
CCn1ccc2c(NC)c(C(=O)N[C@H]3COc4cc(N5CC6CCC(C5)N6)ccc4C3)cnc21 [Compound I-23]	< 50 nM	< 50 nM
CCn1ccc2c(NC)c(C(=O)N[C@@H]3COc4cc(N5CC6CCC(C5)N6)ccc4C3)cnc21 [Compound I-24]	500 to 1000 nM	50 to 500 nM
CCn1ccc2c(NC)c(C(=O)N[C@H]3CCc4cc(N5CC6CCC(C5)N6)ccc4C3)cnc21 [Compound I-25]	50 to 500 nM	< 50 nM
CCn1ccc2c(NC)c(C(=O)N[C@@H]3CCc4cc(N5CC6CCC(C5)N6)ccc4C3)cnc21 [Compound I-26]	500 to 1000 nM	50 to 500 nM
CCn1ccc2c(NC)c(C(=O)NCCc3ccc(N4CC5CCC(C4)N5)cc3)nnc21 [Compound I-27]	< 50 nM	< 50 nM
CCn1ccc2c(NC)c(C(=O)NCCc3ccc(N4CCNCC4)cc3)nnc21 [Compound I-28]	< 50 nM	< 50 nM
CCn1ccc2c(NC)c(C(=O)NCCc3ccc(N4CC5CCC(C4)N5)cc3F)nnc21 [Compound I-29]	50 to 500 nM	< 50 nM
CCn1cc(Cl)c2c(NC)c(C(=O)NCCc3ccc(N4CC5CCC(C4)N5)cc3)cnc21 [Compound I-30]	50 to 500 nM	< 50 nM
COc1c(C(=O)NCCc2ccc(N3CC4CCC(C3)N4)cc2)cnc2c1ccn2C [Compound I-31]	> 10000 nM	1000 to 10000 nM
CCn1ccc2c(OC)c(C(=O)NCCc3ccc(N4CC5CCC(C4)N5)cc3)cnc21 [Compound I-32]	1000 to 10000 nM	50 to 500 nM
CCn1ccc2c(OC)c(C(=O)NCCc3ccc(N4CCNCC4)cc3)cnc21 [Compound I-33]	1000 to 10000 nM	50 to 500 nM
